Assay: Aqueous solubility of organic solvent, EPA830.7840 flask shaking method
Format: physicochemical
Conditions: 1 atm and 23°C
Text: The upper limit of the aqueous solubility of the organic solvent (B) is not particularly limited. The organic solvent (B) may be, for example, a water-miscible organic solvent that can be mixed with water in an arbitrary amount. […] The aqueous solubility of the organic solvent (B) represents the maximum amount (g) of the organic solvent dissolved in 100 g of water.

Row | SMILES | Aqueous solubility | amount of the organic solvent dissolved in 100 g of water
1 | OCc1ccccc1 [Benzyl alcohol] | 4 g/100 g of water | 4 g
2 | CCCCOCCOCCO [Diethylene glycol monobutyl ether] | miscible | miscible
3 | OCCOc1ccccc1 [ethylene glycol monophenyl ether] |  | 2.3 g

Continued, values first:

Row | Aqueous solubility | amount of the organic solvent dissolved in 100 g of water | SMILES
4 | miscible |  | COC(C)COC(C)CO (stereo not drawn) [Dipropylene glycol monomethyl ether]
5 | 18 g/100 g of water | 18 g | CCCOC(C)COC(C)CO (stereo not drawn) [Dipropylene glycol monopropyl ether]
6 | miscible |  | COCC(C)O (stereo not drawn) [Propylene glycol monomethyl ether]
7 | 3 g/100 g of water | 3 g | CCCCOC(C)COC(C)COC(C)CO (stereo not drawn) [Tripropylene glycol monobutyl ether]
8 |  | miscible | COC(C)COC(C)COC(C)CO (stereo not drawn) [tripropylene glycol monomethyl ether]
